Reference: US10308650B2, “Pesticidally active tetracyclic derivatives with sulfur containing substituents” (Syngenta Participations AG, priority 2014, dated 2019)
Where two headings read alike, the source gives them in different places.

Tests used:
Assay type in all cases: in vivo
[1] = test system: Plutella xylostella (Diamond Back Moth); experiment: Activity against Plutella xylostella; details: 120 h, read-out: effect in at least one of the two categories (mortality or growth inhibition); for percent effect (mortality or growth inhibition) at 200 ppm: application rate of 200 ppm, artificial diet, L2 larvae, 5 days after infestation
Method: Example B8: Activity Against Plutella xylostella (Diamond Back Moth)
(§1) 24-well microtiter plates with artificial diet were treated with aqueous test solutions prepared from 10,000 ppm DMSO stock solutions by pipetting. After drying, the plates were infested with L2 larvae (10 to 15 per well). The samples were assessed for mortality and growth inhibition in comparison to untreated samples 5 days after infestation.

[2] = test system: Euschistus heros (Neotropical Brown Stink Bug); experiment: Activity against Euschistus heros; details: 120 h, read-out: effect in at least one of the two categories (mortality or growth inhibition); for percent effect (mortality or growth inhibition) at 200 ppm: application rate of 200 ppm, soybean leaves, N2 nymphs, 5 days after infestation
Method: Example B3: Activity Against Euschistus heros (Neotropical Brown Stink Bug)
Soybean leaves on agar in 24-well microtiter plates were sprayed with aqueous test solutions prepared from 10,000 ppm DMSO stock solutions. After drying the leaves were infested with N2 nymphs. The samples were assessed for mortality and growth inhibition in comparison to untreated samples 5 days after infestation.

[3] = test system: Myzus persicae (Green Peach Aphid); experiment: Activity against Myzus persicae: feeding/contact activity; details: foliar, 144 h
Method: Example B5: Activity Against Myzus persicae (Green Peach Aphid): Feeding/Contact Activity
Sunflower leaf discs were placed onto agar in a 24-well microtiter plate and sprayed with aqueous test solutions prepared from 10,000 ppm DMSO stock solutions. After drying, the leaf discs were infested with an aphid population of mixed ages. The samples were assessed for mortality 6 days after infestation.

[4] = test system: Myzus persicae (Green Peach Aphid); experiment: Activity against Myzus persicae: systemic activity; details: 144 h, test rate of 24 ppm, roots of infested pea seedlings in test solution, 6 days, read-out: mortality
Method: Example B6: Activity Against Myzus persicae (Green Peach Aphid). Systemic Activity
Roots of pea seedlings infested with an aphid population of mixed ages were placed directly into aqueous test solutions prepared from 10,000 DMSO stock solutions. The samples were assessed for mortality 6 days after placing seedlings into test solutions.

[5] = test system: Myzus persicae (Green Peach Aphid); experiment: Activity against Myzus persicae: intrinsic activity; details: 120 h
Description: Example B7: Activity Against Myzus persicae (Green Peach Aphid). Intrinsic Activity
Test compounds prepared from 10,000 ppm DMSO stock solutions were applied by pipette into 24-well microtiter plates and mixed with sucrose solution. The plates were closed with a stretched Parafilm. A plastic stencil with 24 holes was placed onto the plate and infested pea seedlings were placed directly on the Parafilm. The infested plate was closed with a gel blotting paper and another plastic stencil and then turned upside down. The samples were assessed for mortality 5 days after infestation.

[6] = test system: Spodoptera littoralis (Egyptian Cotton Leaf Worm); experiment: Activity against Spodoptera littoralis (cotton leaf discs, spray); details: foliar, 72 h, read-out: control (mortality, anti-feeding effect, growth inhibition)
Method: Example B9: Activity Against Spodoptera littoralis (Egyptian Cotton Leaf Worm)
Cotton leaf discs were placed onto agar in 24-well microtiter plates and sprayed with aqueous test solutions prepared from 10,000 ppm DMSO stock solutions. After drying the leaf discs were infested with five L1 larvae. The samples were assessed for mortality, anti-feeding effect, and growth inhibition in comparison to untreated samples 3 days after infestation. Control of Spodoptera littoralis by a test sample is given when at least one of the categories mortality, anti-feedant effect, and growth inhibition is higher than the untreated sample.

[7] = test system: Diabrotica balteata (Corn Root Worm); experiment: Activity against Diabrotica balteata; details: 96 h, read-out: effect in at least one of the two categories (mortality or growth inhibition); for percent effect (mortality or growth inhibition) at 200 ppm: application rate of 200 ppm, maize sprouts, L2 larvae, 4 days after infestation
Method: Example B2: Activity Against Diabrotica balteata (Corn Root Worm)
as §1, with “Maize sprouts placed onto an agar layer in 24-well” for “24-well”, “plates” for “plates with artificial diet”, “spraying.” for “pipetting.”, “(6” for “(10”, “10” for “15”, “4” for “5”

[8] = test system: Aedes aegypti (Yellow Fever Mosquito); experiment: Activity against Aedes aegypti; details: 200 ppm in ethanol, dry deposit in 12 well plates, adult females, after 48 h and/or 24 h
Method: Example B13: Activity Against Aedes aegypti (Yellow Fever Mosquito)
Test solutions, at an application rate of 200 ppm in ethanol, were applied to 12 well tissue culture plates. Once the deposits were dry, five, two to five day old adult female Aedes aegypti were added to each well, and sustained with a 10% sucrose solution in a cotton wool plug. Assessment of knockdown was made one hour after introduction, and mortality was assessed at 24 and 48 hours after introduction.

[9] = test system: Bemisia tabaci (Cotton White Fly); experiment: Activity against Bemisia tabaci: feeding/contact activity; details: foliar, 144 h, application rate of 200 ppm, cotton leaf discs, adult white flies, 6 days after incubation
Method: Example B1: Activity Against Bemisia tabaci (Cotton White Fly): Feeding/Contact Activity
Cotton leaf discs were placed on agar in 24-well microtiter plates and sprayed with aqueous test solutions prepared from 10,000 ppm DMSO stock solutions. After drying the leaf discs were infested with adult white flies. The samples were checked for mortality 6 days after incubation.

[10] = test system: Spodoptera littoralis (Egyptian Cotton Leaf Worm); experiment: Activity against Spodoptera littoralis (lettuce, uptake by the roots from agar); details: 144 h, test rate of 12.5 ppm, lettuce grown on treated agar, Spodoptera eggs, 6 days after infestation, read-out: effect in at least one of the three categories (mortality, anti-feeding, or growth inhibition)
Description: Example B10: Activity Against Spodoptera littoralis (Egyptian Cotton Leaf Worm)
Test compounds were applied by pipette from 10,000 ppm DMSO stock solutions into 24-well plates and mixed with agar. Lettuce seeds were placed onto the agar and the multi well plate was closed by another plate which contained also agar. After 7 days the compound was absorbed by the roots and the lettuce grew into the lid plate. The lettuce leaves were then cut off into the lid plate. Spodoptera eggs were pipetted through a plastic stencil onto a humid gel blotting paper and the lid plate was closed with it. The samples were assessed for mortality, anti-feedant effect and growth inhibition in comparison to untreated samples 6 days after infestation.

[11] = application rate of 200 ppm, sunflower leaf discs, aphid population of mixed ages, 6 days after infestation, read-out: mortality
[12] = test rate of 12 ppm, sucrose solution under Parafilm, 5 days after infestation, read-out: mortality
[13] = application rate of 200 ppm, cotton leaf discs, L1 larvae, 3 days after infestation

CCS(=O)(=O)c1cc2c(cc1-c1nc3cc(C(F)(F)F)ncc3n1C)ncn2C (single isomer, unassigned) [Compound A12, 2-(6-ethylsulfonyl-1-methyl-benzimidazol-5-yl)-3-methyl-6-(trifluoromethyl)imidazo[4,5-c]pyridine]
≥ 80%: percent effect (mortality or growth inhibition) at 200 ppm [1] | percent effect (mortality or growth inhibition) at 200 ppm [2] | mortality at 200 ppm [3, 11] | mortality at 24 ppm [4]

CCS(=O)(=O)c1cc2c(cc1-c1nc3cc(C(F)(F)F)ncc3n1C)nc(C)n2C (single isomer, unassigned) [Compound A15, 2-(6-ethylsulfonyl-1,2-dimethyl-benzimidazol-5-yl)-3-methyl-6-(trifluoromethyl)imidazo[4,5-c]pyridine]
≥ 80%: percent effect (mortality or growth inhibition) at 200 ppm [1] | percent effect (mortality or growth inhibition) at 200 ppm [2] | mortality at 200 ppm [3, 11] | mortality at 24 ppm [4]

CCS(=O)(=O)c1cc2ccccc2cc1-c1nc2cc(C(F)(F)F)cnc2n1C [Compound A3, 2-(3-ethylsulfonyl-2-naphthyl)-3-methyl-6-(trifluoromethyl)imidazo[4,5-b]pyridine]
≥ 80%: percent effect (mortality or growth inhibition) at 200 ppm [1] | percent effect (mortality or growth inhibition) at 200 ppm [2] | mortality at 200 ppm [3, 11] | mortality at 12 ppm [5, 12] | mortality at 200 ppm [6, 13] | percent effect (mortality or growth inhibition) at 200 ppm [7]

CCS(=O)(=O)c1cc2nc(C(F)(F)F)n(C)c2cc1-c1nc2cc(C(F)(F)F)ncc2n1C [Compound A8, 2-[6-ethylsulfonyl-3-methyl-2-(trifluoromethyl)benzimidazol-5-yl]-3-methyl-6-(trifluoromethyl)imidazo[4,5-c]pyridine]
≥ 80%: pest or weed control at 200 ppm [8] | percent effect (mortality or growth inhibition) at 200 ppm [1] | percent effect (mortality or growth inhibition) at 200 ppm [2] | mortality at 200 ppm [9] | mortality at 200 ppm [3, 11] | mortality at 24 ppm [4] | percent effect (mortality or growth inhibition) at 200 ppm [7]

CCS(=O)(=O)c1cc2nc(C)sc2cc1-c1nc2cc(C(F)(F)F)ncc2n1C [Compound A19, 5-ethylsulfonyl-2-methyl-6-[3-methyl-6-(trifluoromethyl)imidazo[4,5-c]pyridin-2-yl]-1,3-benzothiazole]
≥ 80%: percent effect (mortality or growth inhibition) at 200 ppm [2] | mortality at 200 ppm [3, 11] | percent effect (mortality, anti-feeding or growth inhibition) at 12.5 ppm [10] | mortality at 24 ppm [4] | mortality at 200 ppm [6, 13] | percent effect (mortality or growth inhibition) at 200 ppm [7]

CCSc1cc2ccccc2nc1-c1nc2cc(C(F)(F)F)ncc2n1C [Compound A21, 3-ethylsulfanyl-2-[3-methyl-6-(trifluoromethyl)imidazo[4,5-c]pyridin-2-yl]quinolone]
≥ 80%: percent control (mortality or growth inhibition) at 200 ppm [1] | percent control (mortality or growth inhibition) at 200 ppm ([2]; in Glycine max) | mortality at 200 ppm [3] | mortality at 12 ppm [5] | mortality at 200 ppm [6] | percent control (mortality or growth inhibition) at 200 ppm [7]

CCSc1cc2ccccc2cc1-c1nc2cc(C(F)(F)F)ncc2n1C [Compound A23, 2-(3-ethylsulfanyl-2-naphthyl)-3-methyl-6-(trifluoromethyl)imidazo[4,5-c]pyridine]
≥ 80%: percent effect (mortality or growth inhibition) at 200 ppm [1] | percent effect (mortality or growth inhibition) at 200 ppm [2] | mortality at 200 ppm [3, 11] | mortality at 12 ppm [5, 12] | percent effect (mortality or growth inhibition) at 200 ppm [7]

CCS(=O)(=O)c1cc2c[n+]([O-])ccc2cc1-c1nc2cc(C(F)(F)F)ncc2n1C [Compound A27, 7-ethylsulfonyl-6-[3-methyl-6-(trifluoromethyl)imidazo[4,5-c]pyridin-2-yl]-2-oxido-isoquinolin-2-ium]
≥ 80%: percent effect (mortality or growth inhibition) at 200 ppm [2] | mortality at 200 ppm [9] | mortality at 200 ppm [3, 11] | mortality at 24 ppm [4]

CCS(=O)(=O)c1cc2c(cc1-c1nc3cc(C(F)(F)F)ncc3n1C)nnn2C [Compound A36, 6-ethylsulfonyl-1-methyl-5-[3-methyl-6-(trifluoromethyl)imidazo[4,5-c]pyridin-2-yl]benzotriazole]
≥ 80%: percent effect (mortality or growth inhibition) at 200 ppm [1] | percent effect (mortality or growth inhibition) at 200 ppm [2] | mortality at 200 ppm [3, 11] | mortality at 24 ppm [4] | percent effect (mortality or growth inhibition) at 200 ppm [7]

CCSc1cc2c(cc1-c1nc3cc(C(F)(F)F)ncc3n1C)nc(C(F)(F)F)n2C [Compound A39, 2-[6-ethylsulfanyl-1-methyl-2-(trifluoromethyl)benzimidazol-5-yl]-3-methyl-6-(trifluoromethyl)imidazo[4,5-c]pyridine]
≥ 80%: pest or weed control at 200 ppm [8] | percent effect (mortality or growth inhibition) at 200 ppm [1] | percent effect (mortality or growth inhibition) at 200 ppm [7]

CCS(=O)(=O)c1cc2cc(C#N)ccc2nc1-c1nc2cc(C(F)(F)F)ncc2n1C [Compound A50, 3-ethylsulfonyl-2-[3-methyl-6-(trifluoromethyl)imidazo[4,5-c]pyridin-2-yl]quinoline-6-carbonitrile]
≥ 80%: percent effect (mortality or growth inhibition) at 200 ppm [1] | percent effect (mortality or growth inhibition) at 200 ppm [2] | mortality at 200 ppm [9] | mortality at 200 ppm [3, 11] | percent effect (mortality, anti-feeding or growth inhibition) at 12.5 ppm [10] | mortality at 200 ppm [6, 13] | percent effect (mortality or growth inhibition) at 200 ppm [7]

CCS(=O)(=O)c1cc2cc(C(F)(F)C(F)(F)F)ccc2nc1-c1nc2cc(C(F)(F)F)ncc2n1C [Compound A52, 3-ethylsulfonyl-2-[3-methyl-6-(trifluoromethyl)imidazo[4,5-c]pyridin-2-yl]-6-(1,1,2,2,2-pentafluoroethyl)quinoline]
≥ 80%: pest or weed control at 200 ppm [8] | percent effect (mortality or growth inhibition) at 200 ppm [1] | percent effect (mortality or growth inhibition) at 200 ppm [2] | mortality at 200 ppm [6, 13] | percent effect (mortality or growth inhibition) at 200 ppm [7]
